Results published in the NIST ThermoML archive (doi:10.1021/je0202073).

Assays:
[1] = Liquid; for mass density: 101.33 kPa, vibrating tube; for Normal boiling temperature: Ebulliometric method (Recirculating still); for vapor or sublimation pressure: ebulliometry
[2] = refractive index (Na D-line) (dimensionless); details: 303.15 K, 101.33 kPa, Liquid
[3] = excess molar enthalpy (molar enthalpy of mixing); xn = mol fraction of the nth substance listed; details: 101.3 kPa, Liquid, Calvet calorimetry
[4] = xn = mol fraction of the nth substance listed; details: 101.3 kPa, Liquid

CCCC(=O)OCC [ethyl butanoate]
Details	mass density [kg/m3]	refractive index
[1], 298.15 K	873.94	–
[2], Abbe refractometer	–	1.388

Details	Normal boiling temperature [°C]
[1]	121.02

CCOC(=O)CC [ethyl propanoate]
Details	mass density [kg/m3]	refractive index
[1], 298.15 K	883.95	–
[2], Abbe refractometer	–	1.3791

Details	Normal boiling temperature [°C]
[1]	98.76

CC(C)(C)O [2-methylpropan-2-ol]
Details	mass density [kg/m3]	refractive index	vapor or sublimation pressure [kPa]
[1], 303.15 K	775.37	–	–
[1], 332.3 K	–	–	37.4
[1], 333.03 K	–	–	38.69
[1], 333.45 K	–	–	39.34
[1], 334.6 K	–	–	41.37
[1], 335.29 K	–	–	42.93
[1], 335.87 K	–	–	43.85
[1], 336.43 K	–	–	45.01
[1], 337.17 K	–	–	46.69
[1], 337.8 K	–	–	48.06
[1], 338.37 K	–	–	49.27
[1], 338.86 K	–	–	50.27
[1], 339.5 K	–	–	51.81
[1], 340.08 K	–	–	53.17
[1], 340.59 K	–	–	54.25
[1], 341.17 K	–	–	55.83
[1], 341.63 K	–	–	56.78
[1], 342.18 K	–	–	58.37
[1], 342.68 K	–	–	59.61
[1], 343.13 K	–	–	60.61
[1], 343.7 K	–	–	62.3
[1], 344.13 K	–	–	63.27
[1], 344.68 K	–	–	64.99
[1], 345.06 K	–	–	65.81
[1], 345.49 K	–	–	67.05
[1], 346.11 K	–	–	69.05
[1], 346.51 K	–	–	70.21
[1], 346.83 K	–	–	71.11
[1], 347.28 K	–	–	72.45
[1], 347.68 K	–	–	73.43
[1], 348.2 K	–	–	75.35
[1], 348.54 K	–	–	76.17
[1], 348.9 K	–	–	77.42
[1], 349.34 K	–	–	78.76
[1], 349.74 K	–	–	80.07
[1], 350.1 K	–	–	81.3
[1], 350.53 K	–	–	82.71
[1], 350.9 K	–	–	83.96
[1], 351.33 K	–	–	85.66
[1], 351.67 K	–	–	86.64
[1], 352.05 K	–	–	88.15
[1], 352.45 K	–	–	89.39
[1], 352.8 K	–	–	90.67
[1], 353.13 K	–	–	92.07
[1], 353.5 K	–	–	93.39
[1], 353.81 K	–	–	94.63
[1], 354.18 K	–	–	95.95
[1], 354.51 K	–	–	97.04
[1], 354.85 K	–	–	98.36
[1], 355.23 K	–	–	100.07
[1], 355.5 K	–	–	100.88
[1], 355.58 K	–	–	101.32
[1], 355.83 K	–	–	102.22
[1], 356.22 K	–	–	103.92
[1], 356.52 K	–	–	105.27
[1], 356.86 K	–	–	106.62
[1], 357.15 K	–	–	107.71
[1], 357.45 K	–	–	109.12
[1], 357.77 K	–	–	110.47
[1], 358.06 K	–	–	111.51
[1], 358.35 K	–	–	112.83
[1], 358.68 K	–	–	114.36
[1], 358.96 K	–	–	115.48
[1], 359.27 K	–	–	117
[1], 359.84 K	–	–	119.53
[1], 360.13 K	–	–	120.87
[1], 360.46 K	–	–	122.36
[1], 360.64 K	–	–	123.08
[1], 360.97 K	–	–	124.73
[1], 361.26 K	–	–	126.15
[1], 361.47 K	–	–	126.96
[1], 361.73 K	–	–	128.2
[1], 362.02 K	–	–	129.63
[1], 362.54 K	–	–	132.15
[1], 362.75 K	–	–	133.36
[1], 363.03 K	–	–	134.71
[1], 363.08 K	–	–	134.81
[1], 363.56 K	–	–	137.4
[1], 363.82 K	–	–	138.8
[1], 364.09 K	–	–	140.03
[1], 364.33 K	–	–	141.29
[1], 364.66 K	–	–	142.96
[1], 365.09 K	–	–	145.34
[1], 365.27 K	–	–	146.36
[1], 365.62 K	–	–	148.18
[1], 366.1 K	–	–	150.66
[1], 366.51 K	–	–	153.08
[1], 366.81 K	–	–	154.69
[1], 367.08 K	–	–	156.16
[1], 367.49 K	–	–	158.58
[1], 367.83 K	–	–	160.39
[1], 368.23 K	–	–	162.82
[2], Standard Abbe refractometry	–	1.382	–

CCOC(=O)CC [ethyl propanoate] + CC(C)(C)O
Details	excess molar enthalpy [kcal/mol]	excess molar volume [m3/mol]
[3], 299.15 K, x1 = 0.0555	0.0801	–
[3], 299.15 K, x1 = 0.1332	0.183	–
[3], 299.15 K, x1 = 0.2151	0.271	–
[3], 299.15 K, x1 = 0.2979	0.346	–
[3], 299.15 K, x1 = 0.3767	0.397	–
[3], 299.15 K, x1 = 0.4164	0.417	–
[3], 299.15 K, x1 = 0.4497	0.428	–
[3], 299.15 K, x1 = 0.477	0.432	–
[3], 299.15 K, x1 = 0.5513	0.43	–
[3], 299.15 K, x1 = 0.6351	0.412	–
[3], 299.15 K, x1 = 0.73	0.354	–
[3], 299.15 K, x1 = 0.8294	0.257	–
[3], 299.15 K, x1 = 0.9242	0.132	–
[3], 318.15 K, x1 = 0.051	0.0699	–
[3], 318.15 K, x1 = 0.1094	0.14	–
[3], 318.15 K, x1 = 0.1681	0.209	–
[3], 318.15 K, x1 = 0.2276	0.271	–
[3], 318.15 K, x1 = 0.2892	0.328	–
[3], 318.15 K, x1 = 0.3477	0.367	–
[3], 318.15 K, x1 = 0.4028	0.395	–
[3], 318.15 K, x1 = 0.4347	0.41	–
[3], 318.15 K, x1 = 0.4528	0.415	–
[3], 318.15 K, x1 = 0.4786	0.424	–
[3], 318.15 K, x1 = 0.5297	0.425	–
[3], 318.15 K, x1 = 0.5872	0.419	–
[3], 318.15 K, x1 = 0.6499	0.398	–
[3], 318.15 K, x1 = 0.7164	0.36	–
[3], 318.15 K, x1 = 0.7897	0.3	–
[3], 318.15 K, x1 = 0.8641	0.217	–
[3], 318.15 K, x1 = 0.9381	0.114	–
[4], 303.15 K, x1 = 0.0345	–	7.6e-07
[4], 303.15 K, x1 = 0.0905	–	2.12e-06
[4], 303.15 K, x1 = 0.1495	–	3.31e-06
[4], 303.15 K, x1 = 0.1943	–	4.02e-06
[4], 303.15 K, x1 = 0.2497	–	4.82e-06
[4], 303.15 K, x1 = 0.2987	–	5.39e-06
[4], 303.15 K, x1 = 0.3496	–	5.77e-06
[4], 303.15 K, x1 = 0.3997	–	6.19e-06
[4], 303.15 K, x1 = 0.4466	–	6.39e-06
[4], 303.15 K, x1 = 0.4486	–	6.45e-06
[4], 303.15 K, x1 = 0.4998	–	6.48e-06
[4], 303.15 K, x1 = 0.5006	–	6.53e-06
[4], 303.15 K, x1 = 0.5163	–	6.52e-06
[4], 303.15 K, x1 = 0.5188	–	6.51e-06
[4], 303.15 K, x1 = 0.5569	–	6.47e-06
[4], 303.15 K, x1 = 0.5646	–	6.42e-06
[4], 303.15 K, x1 = 0.5964	–	6.31e-06
[4], 303.15 K, x1 = 0.6368	–	6.07e-06
[4], 303.15 K, x1 = 0.6458	–	6e-06
[4], 303.15 K, x1 = 0.7044	–	5.45e-06
[4], 303.15 K, x1 = 0.7533	–	4.87e-06
[4], 303.15 K, x1 = 0.8103	–	4.04e-06
[4], 303.15 K, x1 = 0.858	–	3.25e-06
[4], 303.15 K, x1 = 0.9096	–	2.24e-06
[4], 303.15 K, x1 = 0.9432	–	1.54e-06
[4], 318.15 K, x1 = 0.0694	–	1.85e-06
[4], 318.15 K, x1 = 0.1223	–	2.99e-06
[4], 318.15 K, x1 = 0.1759	–	3.87e-06
[4], 318.15 K, x1 = 0.2144	–	4.51e-06
[4], 318.15 K, x1 = 0.2746	–	5.29e-06
[4], 318.15 K, x1 = 0.3188	–	5.79e-06
[4], 318.15 K, x1 = 0.3648	–	6.16e-06
[4], 318.15 K, x1 = 0.4303	–	6.43e-06
[4], 318.15 K, x1 = 0.4669	–	6.5e-06
[4], 318.15 K, x1 = 0.5429	–	6.53e-06
[4], 318.15 K, x1 = 0.596	–	6.43e-06
[4], 318.15 K, x1 = 0.6662	–	6.05e-06
[4], 318.15 K, x1 = 0.7319	–	5.43e-06
[4], 318.15 K, x1 = 0.8088	–	4.45e-06
[4], 318.15 K, x1 = 0.8557	–	3.75e-06
[4], 318.15 K, x1 = 0.9183	–	2.28e-06

CCOC=O [ethyl methanoate]
Details	mass density [kg/m3]	refractive index
[1], 298.15 K	914.53	–
[2], Abbe refractometer	–	1.355

Details	Normal boiling temperature [°C]
[1]	54.14

CCOC(C)=O [ethyl acetate]
Details	mass density [kg/m3]	refractive index
[1], 298.15 K	894.44	–
[2], Abbe refractometer	–	1.3675

Details	Normal boiling temperature [°C]
[1]	77.10
